Holding throughout (format): functional
Test [1] deals with Fuchsia. Nature of the test: Induction of root growth in swingtime Fuchsia hybrida at 10^-8 M after 7 to 34 days relative to indole-3-butyric acid.
For test [2], the system named is Fuchsia. Put plainly: Induction of root growth in varigated Fuchsia hybrida at 10^-8 M after 7 to 34 days relative to indole-3-butyric acid.
The subject of test [3] is Fuchsia. Put plainly: Induction of root growth in swingtime Fuchsia hybrida at 10^-7 M after 7 to 34 days relative to indole-3-butyric acid.
Test [4] concerns Fuchsia. Nature of the test: Induction of root growth in varigated Fuchsia hybrida at 10^-7 M after 7 to 34 days relative to indole-3-butyric acid.

With `O=C(O)C[C@H](C(=O)O)c1c[nH]c2ccccc12`, the Ratio in the test with Fuchsia [1] came out at 4.8; with Fuchsia [2] it was 4.6; in the test with Fuchsia [3], 5.7; with Fuchsia [4], 3.8.
For `O=C(O)C[C@@H](C(=O)O)c1c[nH]c2ccccc12` the same measures were 7.1, 4.4, 5.6 and 0.7.
Regarding `O=C(O)CC(C(=O)O)c1c[nH]c2ccccc12` (racemic), the Ratio in the test on Fuchsia [3] came to 7.
In the case of `O=C(O)Cc1c[nH]c2ccccc12` [INDOLE-3-ACETIC ACID], the Ratio in the test with Fuchsia [3] and in the test on Fuchsia [4] was 0 in each case.

For the origin of these results see ChEMBL document CHEMBL3044722, “Potent enantioselective auxin: indole-3-succinic acid” (2002).
